Source: patent publication US20230340012A1, “NATURAL AND SYNTHETIC COMPOUNDS FOR TREATING CANCER AND OTHER DISEASES” (PACIFIC ARROW LIMITED, priority 2009, published 2023)

System: cancer cells
Assay: MTT cytotoxic assay of esterification products (Cytotoxicity activity)
Format: cell-based, human
How it was run: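 Cytotoxicity was read by MTT (Carmichael method, modified), with cells seeded 24 h ahead of treatment. Sixteen human cancer lines spanning bone, lung, bladder, ovary, colon, pancreas, prostate, skin, mouth, kidney, breast, liver, brain, leukemia and cervix were used. Test samples were acyl chloride esterification products of triterpenes, as mixtures or HPLC-purified compounds.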

[1] = E4A esterified with 2-propenoyl chloride (Ppe = Propenoyl), compounds isolated with HPLC
[2] = E4A esterified with Propionyl chloride (Ppi = Propionyl), compounds isolated with HPLC
[3] = E4A esterified with benzoyl chloride (Ben = benzoyl), compounds isolated with HPLC
[4] = esterification products of core compound E4A with (2E)-2-pentenoyl chloride (2pe = 2-pentenoyl)
[5] = esterification products of core compound E4A with Butyryl chloride (But = Butyryl)
[6] = esterification products of core compound E4A with Decanoyl chloride (Dec = Decanoyl)
[7] = esterification products of core compound E4A with Isobutyryl chloride (Iso = Isobutyryl)
[8] = esterification products of core compound E4A with Myristoyl chloride (Myr = Myristoyl)
[9] = esterification products of core compound E4A with Octanoyl chloride (Oct = Octanoyl)
[10] = esterification products isolated with HPLC, graded strong / moderate / weak

Structure (SMILES) | Cytotoxicity activity [1] | Cytotoxicity activity [2] | Cytotoxicity activity [3] | Cytotoxicity activity [4] | Cytotoxicity activity [5] | Cytotoxicity activity [6] | Cytotoxicity activity [7] | Cytotoxicity activity [8] | Cytotoxicity activity [9] | Cytotoxicity activity (esterification products of E4A—Tig—N with senecioyl chloride) | Cytotoxicity activity [10]
CC1(C)CC2C3=CCC4C5(C)CCC(OC(=O)c6ccccc6)C(C)(COC(=O)c6ccccc6)C5CCC4(C)C3(C)CC(OC(=O)c3ccccc3)C2(COC(=O)c2ccccc2)C(O)C1OC(=O)c1ccccc1 (stereo not drawn) [Compound K17] | weak | weak | weak | weak | weak | weak | weak | weak | weak | – | –
CC1(C)CC2C3=CCC4C5(C)CCC(OC(=O)c6ccccc6)C(C)(COC(=O)c6ccccc6)C5CCC4(C)C3(C)CC(OC(=O)c3ccccc3)C2(COC(=O)c2ccccc2)C(OC(=O)c2ccccc2)C1O (stereo not drawn) [Compound K18] | weak | weak | weak | weak | weak | weak | weak | weak | weak | – | –
CC1(C)CC2C3=CCC4C5(C)CCC(OC(=O)c6ccccc6)C(C)(COC(=O)c6ccccc6)C5CCC4(C)C3(C)CC(OC(=O)c3ccccc3)C2(COC(=O)c2ccccc2)C(OC(=O)c2ccccc2)C1OC(=O)c1ccccc1 (stereo not drawn) [Compound K19] | none | none | none | none | none | none | none | none | none | – | –
CC1(C)CC2C3=CCC4C5(C)CCC(O)C(C)(CO)C5CCC4(C)C3(C)CC(O)C2(COC(=O)c2ccccc2)C(OC(=O)c2ccccc2)C1OC(=O)c1ccccc1 (stereo not drawn) [Compound K20] | moderate | moderate | moderate | moderate | moderate | moderate | moderate | moderate | moderate | – | –
CC1(C)CC2C3=CCC4C5(C)CCC(O)C(C)(COC(=O)c6ccccc6)C5CCC4(C)C3(C)CC(O)C2(CO)C(OC(=O)c2ccccc2)C1OC(=O)c1ccccc1 (stereo not drawn) [Compound K21] | moderate | moderate | moderate | moderate | moderate | moderate | moderate | moderate | moderate | – | –
CC1(C)CC2C3=CCC4C5(C)CCC(O)C(C)(CO)C5CCC4(C)C3(C)CC(OC(=O)c3ccccc3)C2(CO)C(OC(=O)c2ccccc2)C1OC(=O)c1ccccc1 (stereo not drawn) [Compound K22] | moderate | moderate | moderate | moderate | moderate | moderate | moderate | moderate | moderate | – | –
CC1(C)CC2C3=CCC4C5(C)CCC(OC(=O)c6ccccc6)C(C)(CO)C5CCC4(C)C3(C)CC(O)C2(CO)C(OC(=O)c2ccccc2)C1OC(=O)c1ccccc1 (stereo not drawn) [Compound K23] | moderate | moderate | moderate | moderate | moderate | moderate | moderate | moderate | moderate | – | –
CC1(C)CC2C3=CCC4C5(C)CCC(O)C(C)(CO)C5CCC4(C)C3(C)CC(O)C2(CO)C(OC(=O)c2ccccc2)C1OC(=O)c1ccccc1 (stereo not drawn) [Compound K24] | moderate | moderate | moderate | moderate | moderate | moderate | moderate | moderate | moderate | – | –
CC1(C)CC2C3=CCC4C5(C)CCC(O)C(C)(CO)C5CCC4(C)C3(C)CC(O)C2(COC(=O)c2ccccc2)C(O)C1OC(=O)c1ccccc1 (stereo not drawn) [Compound K25] | moderate | moderate | moderate | moderate | moderate | moderate | moderate | moderate | moderate | – | –
CC1(C)CC2C3=CCC4C5(C)CCC(O)C(C)(CO)C5CCC4(C)C3(C)CC(O)C2(COC(=O)c2ccccc2)C(OC(=O)c2ccccc2)C1O (stereo not drawn) [Compound K26] | moderate | moderate | moderate | moderate | moderate | moderate | moderate | moderate | moderate | – | –
CC1(C)CC2C3=CCC4C5(C)CCC(OC(=O)c6ccccc6)C(C)(CO)C5CCC4(C)C3(C)CC(O)C2(COC(=O)c2ccccc2)C(O)C1O (stereo not drawn) [Compound K27] | moderate | moderate | moderate | moderate | moderate | moderate | moderate | moderate | moderate | – | –
CC1(C)CC2C3=CCC4C5(C)CCC(O)C(C)(CO)C5CCC4(C)C3(C)CC(OC(=O)c3ccccc3)C2(COC(=O)c2ccccc2)C(O)C1O (stereo not drawn) [Compound K28] | moderate | moderate | moderate | moderate | moderate | moderate | moderate | moderate | moderate | – | –
CC1(C)CC2C3=CCC4C5(C)CCC(O)C(C)(COC(=O)c6ccccc6)C5CCC4(C)C3(C)CC(O)C2(CO)C(O)C1OC(=O)c1ccccc1 (stereo not drawn) [Compound K29] | moderate | moderate | moderate | moderate | moderate | moderate | moderate | moderate | moderate | – | –
CC1(C)CC2C3=CCC4C5(C)CCC(O)C(C)(COC(=O)c6ccccc6)C5CCC4(C)C3(C)CC(O)C2(CO)C(OC(=O)c2ccccc2)C1O (stereo not drawn) [Compound K30] | moderate | moderate | moderate | moderate | moderate | moderate | moderate | moderate | moderate | – | –
CC1(C)CC2C3=CCC4C5(C)CCC(OC(=O)c6ccccc6)C(C)(COC(=O)c6ccccc6)C5CCC4(C)C3(C)CC(O)C2(CO)C(O)C1O (stereo not drawn) [Compound K31] | moderate | moderate | moderate | moderate | moderate | moderate | moderate | moderate | moderate | – | –
CC1(C)CC2C3=CCC4C5(C)CCC(O)C(C)(COC(=O)c6ccccc6)C5CCC4(C)C3(C)CC(OC(=O)c3ccccc3)C2(CO)C(O)C1O (stereo not drawn) [Compound K32] | moderate | moderate | moderate | moderate | moderate | moderate | moderate | moderate | moderate | – | –
C/C=C(\C)C(=O)OC[C@]1(C)C2CC[C@]3(C)C(CC=C4C5CC(C)(C)[C@@H](O)[C@H](O)[C@]5(COC(=O)C=C(C)C)[C@H](O)C[C@]43C)[C@@]2(C)CC[C@@H]1O (stereo partly drawn) [E4A-Tig-Sen-1] | – | – | – | – | – | – | – | – | – | strong | –
CC=C(C)C(=O)OCC1(C)C(O)CCC2(C)C1CCC1(C)C2CC=C2C3CC(C)(C)C(O)C(O)C3(COC(C)=O)C(O)CC21C (stereo not drawn) [Tig—Acy—1] | – | – | – | – | – | – | – | – | – | – | strong
CC=C(C)C(=O)OCC1(C)C(O)CCC2(C)C1CCC1(C)C2CC=C2C3CC(C)(C)C(OC(C)=O)C(O)C3(COC(C)=O)C(O)CC21C (stereo not drawn) [Tig—Acy—2] | – | – | – | – | – | – | – | – | – | – | moderate
CC=C(C)C(=O)OCC1(C)C(O)CCC2(C)C1CCC1(C)C2CC=C2C3CC(C)(C)C(O)C(OC(C)=O)C3(COC(C)=O)C(O)CC21C (stereo not drawn) [Tig—Acy—3] | – | – | – | – | – | – | – | – | – | – | moderate
CC=C(C)C(=O)OCC1(C)C(OC(C)=O)CCC2(C)C1CCC1(C)C2CC=C2C3CC(C)(C)C(O)C(O)C3(COC(C)=O)C(O)CC21C (stereo not drawn) [Tig—Acy—4] | – | – | – | – | – | – | – | – | – | – | moderate
CC=C(C)C(=O)OCC1(C)C(O)CCC2(C)C1CCC1(C)C2CC=C2C3CC(C)(C)C(OC(C)=O)C(O)C3(CO)C(O)CC21C (stereo not drawn) [Tig—Acy—5] | – | – | – | – | – | – | – | – | – | – | moderate
